Format in all cases: in vivo
For experiment [1], the system named is Blattella germanica (cockroach nymphs). The experiment is described as follows: Residual test, cockroach nymphs (BG), Plastic pot. Particulars: 72 h, 3 days, read-out: BG grading of mortality. The protocol: (§1) The activity of the Product was determined using a variety of insect pests. The Product was used in the form of liquid preparations containing from 100 to 500 parts per million (ppm) by weight of the Product. The preparations were made by dissolving the Product in acetone and diluting the solutions with water containing 0.1% by weight of a wetting agent sold under the trade name "SYNPERONIC" NX until the liquid preparations contained the required concentration of the Product. "SYNPERONIC" is a Registered Trade Mark. The test procedure adopted with regard to each pest was basically the same and comprised supporting a number of the pests on a medium which was usually a host plant or a foodstuff on which the pests feed, and treating either or both the pests and the medium with the preparations. The mortality of the pests was then assessed at periods usually varying from one to seven days after the treatment.

The next experiment concerns Myzus persicae (aphids). The experiment is described as follows: Contact test, aphids (MP), Chinese Cabbage leaf. Particulars: 72 h, 3 days, read-out: MP grading of mortality. The protocol:
as §1, with “treatment. […] In Table III the pest organism used is designated by a letter code and the pests species, the support medium or food, and the type and duration of test is given in Table II.” for “treatment.”

Experiment [2] concerns Spodoptera exigua (lesser army worm - larvae). The experiment is described as follows: Residual test, lesser army worm - larvae (SP), Cotton leaf. Particulars: 72 h, 3 days, read-out: SP grading of mortality. The protocol: (§2) The activity of the Product was determined using a variety of insect pests. The Product was used in the form of liquid preparations containing from 100 to 500 parts per million (ppm) by weight of the Product. The preparations were made by dissolving the Product in acetone and diluting the solutions with water containing 0.1% by weight of a wetting agent sold under the trade name "SYNPERONIC" NX until the liquid preparations contained the required concentration of the Product. "SYNPERONIC" is a Registered Trade Mark.
(§3) The test procedure adopted with regard to each pest was basically the same and comprised supporting a number of the pests on a medium which was usually a host plant or a foodstuff on which the pests feed, and treating either or both the pests and the medium with the preparations. The mortality of the pests was then assessed at periods usually varying from one to seven days after the treatment.
(§4) The results of the tests are given in Table III for each of the Products, at the rate in parts per million given in the second column as a grading of mortality designated as A, B or C wherein A indicates 80-100% mortality or knockdown (70-100% for Meloidogyne incognita), B indicates 50-79% mortality knockdown or knockdown (50-69% for Meloidogyne incognita) and C indicates less than 50% mortality or knockdown.
(§5) In Table III the pest organism used is designated by a letter code and the pests species, the support medium or food, and the type and duration of test is given in Table II.
(lesser army worm - larvae)

For experiment [3], the system named is Musca domestica (houseflies - adults). The experiment is described as follows: Knockdown test, houseflies - adults (MD/KD), Cotton wool/sugar. Particulars: 4 hours, read-out: MD/KD grading of knockdown. As to the method:
as §2, §3
In the case of the species Musca domestica (housefly), an additional assessment to determine the knockdown effect of the compounds was performed.
as §5

The subject of experiment [4] is Heliothis virescens (tobacco budworm - larvae). The experiment is described as follows: Residual test, tobacco budworm - larvae (HV), Cotton leaf. Particulars: 72 h, read-out: HV grading of mortality. The protocol: as §2, §3, §4, §5
(tobacco budworm - larvae)

In experiment [5] the test system is Tetranychus urticae (spider mites - adult). The experiment is described as follows: Contact test, spider mites - adult (TUa), French bean leaf. Particulars: 72 h, 3 days, read-out: TUA grading of mortality. The protocol: as §1
In experiment [6] the test system is Meloidogyne incognita (Tomato root knot eelworm - larvae). The experiment is described as follows: Residual test, Tomato root knot eelworm - larvae (MI), Semi in-vitro. Particulars: 168 h, application rate is half that recorded, 7 days, read-out: MI grading of mortality; for mortality at 250 µg/mL: rate column 500 ppm; for mortality at 125 µg/mL: rate 250 ppm.
The test system of experiment [7] is Diabrotica balteata (rootworm larvae). The experiment is described as follows: Residual test, rootworm larvae (DB), Filter paper/maize seed. Particulars: 72 h, 3 days, read-out: DB grading of mortality. The protocol: as §1
For experiment [8], the system named is Nilaparvata lugens (brown plant hopper - nymphs). The experiment is described as follows: Contact test, brown plant hopper - nymphs (NL), Rice plant. Particulars: 72 h, 3 days, read-out: NL grading of mortality. The protocol:
as §1

In experiment [9] the test system is Tetranychus urticae (spider mites - ova). The experiment is described as follows: Contact test, spider mites - ova (TUe), French bean leaf. Particulars: 144 h, 6 days, read-out: TUE grading of mortality. The protocol:
as §1

Experiment [10] has as its system Musca domestica (houseflies - adults). The experiment is described as follows: Contact test, houseflies - adults (MD), Cotton wool/sugar. Particulars: 24 h, 1 day, read-out: MD grading of mortality. As to the method: as §1

Each structure is given as a SMILES string.

Take `COCc1ccc(C(CCCc2cccc(Oc3ccccc3)c2)C(F)(F)F)cc1` (racemic) [Compound 45, 1,1,1-Trifluoro-2-(4-methoxymethylphenyl)-5-(3-phenoxyphenyl)pentane]: the mortality at 500 ppm in experiment [1] is less than 50%; with Myzus persicae (aphids), less than 50%; in experiment [2], 80 to 100%; in [4], 80 to 100%; in [5] it was less than 50%; in experiment [7], 80 to 100%. Besides, the mortality at 500 ppm in experiment [8] is 80 to 100%; in experiment [9], less than 50%; in [10], 80 to 100%. The pest or weed control at 500 ppm in [3] lay in the range of 80 to 100%. In experiment [6], the mortality at 250 µg/mL was less than 50%.

With `COc1ccc(C(CCCc2cccc(Oc3ccccc3)c2)C(F)(F)F)cc1` (racemic) [Compound 49, 1,1,1-Trifluoro-2-(4-methoxyphenyl)-5-(3-phenoxyphenyl)pentane], the mortality at 500 ppm in experiment [1] was less than 50%; with Myzus persicae (aphids), 80 to 100%; in experiment [2] it was 80 to 100%; in [4], 80 to 100%; in experiment [5], less than 50%; in [7], less than 50%. Moreover, the mortality at 500 ppm in [8] is 80 to 100%; in [9], less than 50%; in experiment [10], 80 to 100%. Also, the pest or weed control at 500 ppm in experiment [3] was in the range of 80 to 100%. Moreover, in experiment [6], the mortality at 250 µg/mL was less than 50%.

On to `FC(F)(F)C(CCCc1cccc(Oc2ccccc2)c1)c1ccc2c(c1)CCC2` (racemic) [Compound 52, 1,1,1-Trifluoro-2-(5-indanyl)-5-(3-phenoxyphenyl)pentane], for which the mortality at 250 ppm in [1] was 80 to 100%; in the experiment with Myzus persicae (aphids), 50 to 79%; in [2], 80 to 100%; in experiment [4], 80 to 100%; in [5], 80 to 100%; in [7] it was less than 50%. Moreover, the mortality at 250 ppm in experiment [8] was 80 to 100%; in experiment [9], less than 50%; in experiment [10], 50 to 79%. Also, the pest or weed control at 250 ppm in [3] was less than 50%. In addition, the mortality at 125 µg/mL in experiment [6] was less than 50%.

On to `Fc1ccc(C(CCCc2cccc(Oc3ccccc3)c2)C(F)(F)F)cc1` (racemic) [Compound 53, 1,1,1-Trifluoro-2-(4-fluorophenyl)-5-(3-phenoxyphenyl)pentane], for which the mortality at 250 ppm (in [1]; in the experiment with Myzus persicae (aphids); in experiment [2]; in experiment [4]; in experiment [5]; in experiment [7]) was 80 to 100% throughout. Besides, the mortality at 250 ppm is 80 to 100% in experiment [8], less than 50% in experiment [9] and 80 to 100% in experiment [10]. Besides, the pest or weed control at 250 ppm in experiment [3] is less than 50%. In [6], the mortality at 125 µg/mL was less than 50%.

`CCOc1ccc(C(CCC(C#N)c2cccc(Oc3ccccc3)c2)C(F)(F)F)cc1` (racemic) [Compound 54, 1,1,1-Trifluoro-2-(4-ethoxyphenyl)-5-cyano-5-(3-phenoxyphenyl)pentane]: the mortality at 500 ppm in experiment [1] was less than 50%; in the experiment with Myzus persicae (aphids), 80 to 100%; in experiment [2] it was 80 to 100%; in [4], 80 to 100%; in experiment [5], less than 50%; in experiment [7] it was less than 50%. Also, the figures for the mortality at 500 ppm in [8], in [9] and in experiment [10] were 80 to 100%, less than 50% and 80 to 100%, respectively. The pest or weed control at 500 ppm in experiment [3] was in the range of 80 to 100%. Also, the mortality at 250 µg/mL in experiment [6] is less than 50%.

For the molecule `CCOc1ccc(C(CCC(C)c2cccc(Oc3ccccc3)c2)C(F)(F)F)cc1` (racemic) [Compound 55, 1,1,1-Trifluoro-2-(4-ethoxyphenyl)-5-(3-phenoxyphenyl)hexane], the mortality at 500 ppm is 80 to 100% in experiment [1]; 80 to 100% in the experiment with Myzus persicae (aphids); 80 to 100% in experiment [2]; 80 to 100% in experiment [4]; less than 50% in experiment [5]; 50 to 79% in experiment [7]. Moreover, the mortality at 500 ppm in [8] was 80 to 100%; in experiment [9], less than 50%; in experiment [10] it was 80 to 100%. Further, in [3], the pest or weed control at 500 ppm was 80 to 100%. In addition, the mortality at 250 µg/mL in [6] is less than 50%.

`CCOc1ccc(C(CCCc2cccc(Oc3ccccc3)c2)C(F)(F)F)cc1F` (racemic) [Compound 56, 1,1,1-Trifluoro-2-(3-fluoro-4-ethoxyphenyl)-5-(3-phenoxyphenyl)pentane]: the mortality at 500 ppm (in experiment [1]; with Myzus persicae (aphids); in experiment [2]; in experiment [4]; in [5]; in [7]) was 80 to 100% throughout. Besides, the mortality at 500 ppm in experiment [8], in experiment [9] and in experiment [10] was 80 to 100% in each case. Further, in experiment [3], the pest or weed control at 500 ppm was in the range of 80 to 100%. In addition, the mortality at 250 µg/mL in experiment [6] is less than 50%.

As to `CCOc1c(F)cc(C(CCCc2cccc(Oc3ccccc3)c2)C(F)(F)F)cc1F` (racemic) [Compound 57, 1,1,1-Trifluoro-2-(3,5-difluoro-4-ethoxyphenyl)-5-(3-phenoxyphenyl)pentane], the mortality at 500 ppm (in experiment [1]; with Myzus persicae (aphids); in experiment [2]; in experiment [4]; in experiment [5]; in experiment [7]) was 80 to 100% throughout. Besides, the mortality at 500 ppm in experiment [8], in [9] and in experiment [10] was 80 to 100% in each case. In addition, the pest or weed control at 500 ppm in [3] is 80 to 100%. In addition, the mortality at 250 µg/mL in experiment [6] is less than 50%.

As for `OC(CCCc1cccc(Oc2ccccc2)c1)(c1ccc(OC(F)(F)F)cc1)C(F)(F)F` (racemic) [Compound 59, 1,1,1-trifluoro-2-hydroxy-2-(4-trifluoromethoxyphenyl)-5-(3-phenoxyphenyl)pentane], the mortality at 500 ppm in experiment [1] was less than 50%; in the experiment on Myzus persicae (aphids) it was less than 50%; in experiment [2], less than 50%; in experiment [4], less than 50%; in experiment [5] it was 80 to 100%; in experiment [7], 80 to 100%. For the same molecule, the values for the mortality at 500 ppm in experiment [8], in experiment [9] and in experiment [10] were 80 to 100%, less than 50% and less than 50%, respectively. Besides, in experiment [3], the pest or weed control at 500 ppm was less than 50%. The mortality at 250 µg/mL in experiment [6] was less than 50%.

Source of the values: patent US4791139A, “Diphenyl ether derivatives and their use as insecticides” (Imperial Chemical Industries PLC, priority 1986, dated 1988).
